From PMC5228037, “Discovery and Mechanistic Characterization of Selective Inhibitors of H2S-producing Enzyme: 3-Mercaptopyruvate Sulfurtransferase (3MST) Targeting Active-site Cysteine Persulfide” (Scientific Reports, 2017)

Assays:
[1] = biological target: T1, rhodanese (thiosulfate sulfurtransferase, Type II) (Bos taurus, UniProt P00586); experiment: Rhodanese activity, conversion of cyanide to thiocyanide (Sörbo method); type: biochemical, bovine; details: 100 μM compound; room temperature 5 min; mean ± S.D.
T1 construct: Bovine liver rhodanese; purchased Sigma-Aldrich; host or cells: bovine liver
T1 sequence (P00586 1-297): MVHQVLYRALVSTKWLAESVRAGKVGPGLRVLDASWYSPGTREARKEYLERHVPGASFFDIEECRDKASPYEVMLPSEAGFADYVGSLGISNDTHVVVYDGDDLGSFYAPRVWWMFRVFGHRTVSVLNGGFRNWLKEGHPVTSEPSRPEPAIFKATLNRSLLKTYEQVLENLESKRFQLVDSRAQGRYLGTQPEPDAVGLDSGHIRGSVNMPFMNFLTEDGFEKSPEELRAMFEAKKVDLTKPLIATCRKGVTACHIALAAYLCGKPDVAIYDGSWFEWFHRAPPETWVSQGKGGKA
Description: Figure 2 Selectivity assessment of hit compounds for 3MST over other H2S/polysulfides-producing enzymes and rhodanese. (a) 3MST-Inhibitory activity of hit compounds at 10 and 100 μM in cell lysate of 3MST-expressing HEK293 cells. 100 μM 3MP and 100 μM DTT were added to the solution containing 0.1% DMSO as a cosolvent, and the mixture was incubated at 37 °C for 15 min. H2S production was measured by gas chromatography. All data are presented as the mean ± S.D. (100 μM: n = 3 or 4; 10 μM: n = 3). (b) Selectivity assessment of hit compounds at 100 μM towards CBS and CSE. Only DMSO was added to the control sample instead of DMSO solution containing hit compounds. H2S production was monitored by gas chromatography. All data are presented as the mean (n = 3). (c) Detection method for rhodanese activity (Sörbo method). (d) Selectivity assessment of hit compounds towards rhodanese. The results are mean ± S.D. (n = 4, three times). These values were determined based upon the absorbance of [Fe(SCN)3] at 460 nm (Sӧrbo method). Bovine rhodanese 1.3–1.7 units/mL, substrate: 52 mM Na2S2O3, 50 mM KCN, 0.004% (w/v) BSA, 100 μM compound and DMSO 1% (v/v) in 88 mM potassium phosphate buffer (pH 8.6) at room temperature for 5 min incubation. (e) Fluorescence confocal microscopic images of live COS7 cells transfected with 3MST or an empty vector[9] as a control. Cells were incubated with 50 μM SSP4, a fluorescent probe for sulfane sulfur, and 10 μM, 1 μM, 0.5 μM, 0.1 or 0 μM compound 3 in DMEM containing 0.6% DMSO for 30 min, then washed with HBSS and placed in fresh DMEM with 0‒10 μM compound 3 (Pre). 500 μM 3MP was added to the cells and the cells were incubated for 10 min (10 min). (f) Graphic representation of (e). F/F0 was calculated by dividing the fluorescence intensity of cells after addition of 500 μM 3MP (10 min) by that of cells before addition of 500 μM 3MP (Pre), then the mean F/F0 was determined from 5 cells. All data represent the mean ± standard error of the mean (SEM) of three experiments.
Following reagents were prepared.
B. 125 mM sodium thiosulfate (Na2S2O3) solution
C. 250 mM potassium cyanide (KCN) solution in reagent A
D. 14% (w/v) nitric acid (HNO3) solution
E. 410 mM ferric nitrate (Fe(NO3)3) in reagent D
F. 37% formaldehyde solution
G. 12.5 mM sodium thiosulfate (Na2S2O3) solution with 0.025% bovine serum albumin H. rhodanese solution in reagent G […]
Mixed by pipetting and equilibrate d to room
Reagent H (Enzyme Solution) 16 µL 16 µL - Mixed by pipetting and incubate d at 25℃ for exactly 5 minutes , and then added […]
Mixed by pipetting and then added […]
Mixed by pipetting , transferred the solution 44 µL 44 µL 44 µL […]
Mixed by pipetting and recorded the A460 nm for the Test, Control and Blank using a microplate […]
Supplementary Figure S10. […]

[2] = Reactivity test toward H2S (3rd screening, cysteine-activated H2S donor); details: 40 μM H2S donor, 1 mM L-cysteine, 37 °C 60 min, mean±S.D. n = 4
Description: Reactivity of the hit compounds toward H2S was next examined. The final concentration of the compounds was 10 or 30 μM. The assay protocol was as follows. Compounds were diluted with HSip-1 and cysteine-activated H2S donor[22] solution to 20 or 60 μM solution (15.4% DMSO) with a Multi-Drop and a pipette. Next, 2 mM L-cysteine solution (10 μL, final concentration: 1 mM L-cysteine) was dispensed into the plates (total volume was 20 μL, DMSO 7.7%), and the plates were incubated at 37 °C for 1 hr. The fluorescence of HSip-1 was measured (λex = 490 nm, λem = 510 nm) with a microplate reader. Background control wells (i.e., no addition wells instead of addition of the cysteine-activated H2S donor, n = 16) were also prepared for all plates.
Supplementary Table S2. Inhibition (%) of fluorescence increase caused by H2S in the 3rd […]
Compound 10 µM Compound 30 µM Compound 10 µM Compound 30 µM
All data are presented as the mean±S.D. (n = 4). Conditions: Mixtures of 1 μM HSip-1, 10 or 30 μM test compound, 40 μM H2S donor, 1 mM ʟ-cysteine, and 7.7% DMSO (v/v) were incubated at 37 °C for 60 min. The control with DMSO alone instead of DMSO solution of test compound was taken as 0% inhibition, and the sample without H2S donor was taken as 100% inhibition. […]
directly react with H2S: For this assay, we synthesized a reported small-molecular H2S donorS2 that produces H2S by reacting with cysteine. Each compound (10 or 30 μM) was dissolved in a solution (30 mM HEPES buffer (pH 7.4)) containing 1 μM HSip-1, 40 μM H2S donor, 1 mM ʟ-cysteine and 7.7% (v/v) DMSO as a cosolvent, and the solution was incubated at 37 °C for 60 min. Then, the fluorescence intensities were measured to evaluate the amount of H2S in the solution […]

## Cc1cc(=O)[nH]c(SCC(=O)c2cccc3ccccc23)n1 [compound 3]
[1]
  Inhibition of rhodanese conversion of cyanide ions to thiocyanide ions: 1.7 ± 6.7%
[2]; 10 μM compound
  Inhibition (%) of fluorescence increase caused by H2S in the 3rd screening: -3.2±5.0%
[2]; 30 μM compound
  Inhibition (%) of fluorescence increase caused by H2S in the 3rd screening: -3.5±3.9%

## NC(=O)c1ccsc1NC(=O)CSc1nc2ccccc2c(=O)[nH]1 [compound 1]
[1]
  Inhibition of rhodanese conversion of cyanide ions to thiocyanide ions: 18.2 ± 3.6%
[2]; 10 μM compound
  Inhibition (%) of fluorescence increase caused by H2S in the 3rd screening: 0.2±3.5%
[2]; 30 μM compound
  Inhibition (%) of fluorescence increase caused by H2S in the 3rd screening: 1.0±2.4%

## Cc1sc2nc(SCC(=O)c3ccc(O)cc3O)[nH]c(=O)c2c1C [compound 2]
[1]
  Inhibition of rhodanese conversion of cyanide ions to thiocyanide ions: 10.9 ± 5.5%
[2]; 10 μM compound
  Inhibition (%) of fluorescence increase caused by H2S in the 3rd screening: 6.5±1.8%
[2]; 30 μM compound
  Inhibition (%) of fluorescence increase caused by H2S in the 3rd screening: 19.6±15.3%

## O=C(O)c1cccc(NS(=O)(=O)c2ccccc2)c1 [compound 5]
[1]
  Inhibition of rhodanese conversion of cyanide ions to thiocyanide ions: 9.7 ± 4.5%
[2]; 10 μM compound
  Inhibition (%) of fluorescence increase caused by H2S in the 3rd screening: 2.5±4.5%
[2]; 30 μM compound
  Inhibition (%) of fluorescence increase caused by H2S in the 3rd screening: -1.2±16.3%
